Here are results for 28 compounds from patent publication US6310095A, “Inhibitors of protein isoprenyl transferases” (University of Pittsburgh, priority 1998, dated 2001).

Counter-ions that a name gives are not always drawn. Some results are limits rather than exact numbers.

For the first experiment, the target named is T1, protein farnesyltransferase (Rattus norvegicus, UniProt Q02293+Q04631).
T1 construct: Rat brain protein farnesyltransferase activity is measured; from tissue; host or cells: rat brain; purified according to Reiss et al., Cell 62:81-88 (1990), steps one through three
As to the kind of experiment: in vitro inhibition of protein farnesyltransferase (scintillation proximity assay, biotin-K Ras B fragment). It is filed as biochemical. As to conditions: at 1 × 10^-5 M. The method in brief: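 Rat brain enzyme, purified through three steps, in a scintillation proximity assay kit with biotin-K Ras B fragment substrate at 0.1 mM final. Value is % inhibition of farnesylation.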
Background: Scintillation proximity formats need no separation of bound from free tracer.
The term inhibition denotes how much of the control response was suppressed. On to `CSCC[C@H](NC(=O)c1ccc(NC(=O)[C@@H]2C[C@@H](O)CN2)cc1-c1ccccc1)C(=O)O` [Example 952, N-[4-(4-hydroxyprolinylamino)-2-phenylbenzoyl]methionine], for which the inhibition at 10 µM is over 50%.

Staying with this experiment, now noted: at 1 × 10^-6 M.
As for `CSCC[C@H](NC(=O)c1ccc(COC2CCN(Cc3ccccc3)C2)cc1-c1ccccc1C)C(=O)O` (stereo partly shown) [Example 987], the “% inhibition of farnesyltransferase” value is 93%.
For `CSCC[C@H](NC(=O)c1ccc(CN2CCC(OCc3ccccc3)C2)cc1-c1ccccc1C)C(=O)O` (stereo partly shown) [Example 988], the “% inhibition of farnesyltransferase” value is reported as 92%.
With `CSCC[C@H](NC(=O)c1ccc(CN2CCCC(OCc3ccccc3)C2)cc1-c1ccccc1C)C(=O)O` (stereo partly shown) [Example 989], the “% inhibition of farnesyltransferase” value was determined as 88%.
Turning to “N-[4-(3-furan-2-yl-2-phenylprop-2-en-1-ylaminomethyl)-2-(2-methylphenyl)benzoyl]methionine lithium salt [Example 537]”, the “% inhibition of farnesyltransferase” value amounted to 97%.

Staying with this experiment, now noted: at 1 × 10^-6 M; read-out: % inhibition of farnesyltransferase.
Consider `CSCC[C@H](NC(=O)c1ccc(NC(=O)OCCCl)cc1-c1ccccc1)C(=O)O` [Example 979, N-[4-(N-2-chloroethoxycarbonyl)amino-2-phenylbenzoyl]methionine], for which the inhibition at 1 µM turned out to be 26%.
Consider `CSCC[C@H](NC(=O)c1ccc(CN(C)C(C)(C)Cc2ccccc2)cc1-c1ccccc1C)C(=O)O` [Example 982, N-[4-(N-Methyl-N-(1,1-dimethyl-2-phenylethyl)aminomethyl)-2-(2-methylphenyl)-benzoyl]methionine lithium salt], for which the inhibition at 1 µM was 64%.

The experiment is the same for the next values; noted with them: at 1 × 10^-7 M.
As for `CCSCC(CC1CCCCC1)N(Cc1ccc(C(=O)N[C@@H](CCSC)C(=O)O)c(-c2ccccc2C)c1)CC(C)C` (stereo partly shown) [Example 945, N-[4-N-(3-Cyclohexyl-1-ethylthiopropan-2-yl)-N-isobutylaminomethyl-2-(2-methylphenyl)benzoyl]-methionine], the “% inhibition of farnesyltransferase” value was determined as 80%.
Turning to `CSCC[C@H](NC(=O)c1ccc(CN2CCCC(OCC3CCCCC3)C2)cc1-c1ccccc1C)C(=O)O` (stereo partly shown) [Example 990], the “% inhibition of farnesyltransferase” value is recorded as 84%.
The same measure, in the same setting: for `CSCC[C@H](NC(=O)c1ccc(CN2CCC[C@@H]2COCc2ccccc2)cc1-c1ccccc1C)C(=O)O` [Example 993] the value was 90%.

Still in this experiment, the particulars now being: at 1 × 10^-7 M; read-out: % inhibition of farnesyltransferase.
For `CCSC[C@H](CC1CCCCC1)N(Cc1ccc(C(=O)N[C@@H](CCSC)C(=O)O)c(-c2ccccc2C)c1)C(C)=O` [Example 947, N-[4-N-acetyl-N-(3-Cyclohexyl-1-ethylthiopropan-2-yl)aminomethyl-2-(2-methylphenyl)-benzoyl]methionine], the inhibition at 0.1 µM was determined as 79%.
Take `CCSC[C@H](CC1CCCCC1)N(Cc1ccc(C(=O)N[C@@H](CCSC)C(=O)O)c(-c2ccccc2C)c1)C(=O)OC(C)(C)C` [Example 948, N-[4-N-t-Butyloxycarbonyl-N-(3-cyclohexyl-1-ethylthiopropan-2-yl)aminomethyl-2-(2-methylphenyl)benzoyl]methionine]: the inhibition at 0.1 µM is 75%.
On to `CCSC[C@H](CC1CCCCC1)N(Cc1ccc(C(=O)N[C@@H](CCSC)C(=O)O)c(-c2ccccc2C)c1)C(=O)c1ccccc1` [Example 949, N-[4-N-Benzoyl-N-(3-Cyclohexyl-1-ethylthiopropan-2-yl)aminomethyl-2-(2-methylphenyl)-benzoyl]methionine], for which the inhibition at 0.1 µM was 57%.
Still for that read-out and setting: for `CCCCS(=O)(=O)N(Cc1ccc(C(=O)N[C@@H](CCSC)C(=O)O)c(-c2ccccc2C)c1)[C@H](CSCC)CC1CCCCC1` [Example 950, N-[4-N-Butanesulfoyl-N-(3-Cyclohexyl-1-ethylthiopropan-2-yl)aminomethyl-2-(2-methylphenyl)-benzoyl]methionine] the value was 71%.
Regarding `CCSC[C@H](CC1CCCCC1)N(Cc1ccc(C(=O)N[C@@H](CCSC)C(=O)O)c(-c2ccccc2C)c1)S(=O)(=O)c1ccccc1` [Example 951], the inhibition at 0.1 µM is 71%.
The same measure, in the same setting: then `CSCC[C@H](NC(=O)c1ccc(NC[C@@H]2C[C@H](S)CN2)cc1-c1ccccc1)C(=O)O` [Example 959, N-[4-((2S,4S)-4-thiolpyrrolidin-2-ylmethylamino)-2-phenylbenzoyl]methionine], with over 50%.

The same experiment, now with this note: at 1 × 10^-8 M.
Take `CCCCC(CCCC)OCc1ccc(C(=O)N[C@@H](CCSC)C(=O)[O-])c(-c2ccccc2C)c1.[Li+]` [Example 942]: the “% inhibition of farnesyltransferase” value is 58%.
Same read-out and setting: then `CCCCC(Cc1ccccc1Cl)OCc1ccc(C(=O)N[C@@H](CCSC)C(=O)O)c(-c2ccccc2C)c1` (stereo partly shown) [Example 943], with 79%; and `CCCCC(OCc1ccc(C(=O)N[C@@H](CCSC)C(=O)O)c(-c2ccccc2C)c1)c1cncs1` (stereo partly shown) [Example 985], with 89%.
In the case of `CSCC[C@H](NC(=O)c1ccc(CN2CCC[C@H]2COc2ccccc2)cc1-c1ccccc1C)C(=O)O` [Example 991], the “% inhibition of farnesyltransferase” value was determined as 69%.
Take `CSCC[C@H](NC(=O)c1ccc(CN2CCC[C@H]2COCC2CCCCC2)cc1-c1ccccc1C)C(=O)O` [Example 992]: the “% inhibition of farnesyltransferase” value was 93%.
Take `CSCC[C@H](NC(=O)c1ccc(CO[C@H](CSC(C)(C)C)Cc2ccccc2)cc1-c1ccccc1C)C(=O)O` [Example 994]: the “% inhibition of farnesyltransferase” value is reported as 83%.

Staying with this experiment, now noted: at 1 × 10^-8 M; read-out: % inhibition of farnesyltransferase.
`CCSC[C@H](CC1CCCCC1)N(C)Cc1ccc(C(=O)N[C@@H](CCSC)C(=O)O)c(-c2ccccc2C)c1` [Example 944, N-[4-N-(3-Cyclohexyl-1-ethylthiopropan-2-yl)-N-methylaminomethyl-2-(2-methylphenyl)benzoyl]-methionine hydrochloride salt]: the inhibition at 0.01 µM is 88%.
As for `CCSC[C@H](CC1CCCCC1)N(C=O)Cc1ccc(C(=O)N[C@@H](CCSC)C(=O)O)c(-c2ccccc2C)c1` [Example 946, N-[4-N-(3-Cyclohexyl-1-ethylthiopropan-2-yl)-N-formylaminomethyl-2-(2-methylphenyl)benzoyl]methionine], the inhibition at 0.01 µM is 52%.
As for `CSCC[C@H](NC(=O)c1ccc(NC[C@H]2NCC[C@H]2S)cc1-c1ccccc1)C(=O)O` [Example 960, N-[4-((2S,4R)-4-thiolpyrrolidin-2-ylmethylamino)-2-phenylbenzoyl]methionine], the inhibition at 0.01 µM is over 50%.
Same read-out and setting: then `CSCC[C@H](NC(=O)c1ccc(CN(CCC2CCCCC2)Cc2cncs2)cc1-c1ccccc1C)C(=O)O` [Example 986], with 95%; and `CCSC[C@H](CCc1ccccc1)NCc1ccc(C(=O)N[C@@H](CCSC)C(=O)O)c(-c2ccccc2C)c1` [Example 995], with 92%; and `CCCCS(=O)(=O)N(Cc1ccc(C(=O)N[C@@H](CCSC)C(=O)O)c(-c2ccccc2C)c1)CC1CCCCC1` [Example 996, N-[4-(N-cyclohexylmethyl-N-butanesulfonylaminomethyl)-2-(2-methylphenyl)benzoyl]methionine], with 80%.
